The test system of data set [1] is Trypanosoma brucei. As to the kind of experiment: DNDI: Mean survival time in days (MSD) of mice after intraperitoneal injection of Human African Trypanosomiasis (HAT), EATRO 110, in vivo at 20 mg/kg/day for 4 days. Type of data set: functional, Mus musculus.
Data set [2] deals with Trypanosoma brucei. As to the kind of experiment: DNDI: Inhibition of Human African Trypanosomiasis, EATRO 110, in vitro. Type of data set: functional, organism-based.
The conditions of data set [3]: mouse, microsomes, 1 µM.
Description: (§1) DNDI: in vitro intrinsic clearance in mouse liver microsomes at a concentration of 1uM
Data set [4] can be described thus: DNDI: Cytotoxicity against L929 mouse fibroblasts, 72 hour. Format: toxicity, cell-based. The note with it: mouse, L929 mouse fibroblasts.
A short description of data set [5]: DNDI: Solubility in phosphate buffered saline at pH7.4 measured by nephelometry at room temperature (NEPH-RT). Type of data set: physicochemical. The note with it: pH 7.4.
Data set [6] can be described thus: DNDI: Cytotoxicity against L-6 rat myoblasts from skeletal muscle cells. Type of data set: toxicity, cell-based, L6. The note with it: L-6 rat skeletal muscle myoblasts.
Data set [7] in a line: DNDI: in vitro intrinsic clearance in mouse liver microsomes at a concentration of 10uM. Format: ADME, Microsome. The note with it: read-out: CLint in vitro. A general note: Microsomes from liver hold many membrane-bound enzymes, among them those of drug oxidation.
The nature of data set [8]: DNDI: half life in mouse liver microsomes at a concentration of 10uM. Type of data set: ADME, Microsome.
The nature of data set [9]: DNDI: Cytotoxicity against L929 mouse fibroblasts, CYTO-SP, 24 hour. Format: toxicity, cell-based. The note with it: mouse, L929 mouse fibroblasts.
A short description of data set [10]: DNDI: Solubility in phosphate buffered saline at pH7.4 measured by optical density (turbidimetry) at room temperature (OD-RT). Format: physicochemical. The note with it: pH 7.4.
Data set [11] relates to Trypanosoma brucei. Kind of data set: DNDI: Inhibition of Human African Trypanosomiasis, SBRI 427, in vitro. Type of data set: functional, organism-based.
A further data set concerns Plasmodium falciparum. Kind of data set: DNDI: Inhibition of the malaria parasite Plasmodium falciparum, in vitro. The note with it: K1. Format: functional, organism-based.
Data set [12] deals with Trypanosoma brucei rhodesiense. Kind of data set: DNDI: Inhibition of Human African Trypanosomiasis (HAT), STIB 900, in vitro. Type of data set: functional, organism-based.
Data set [13] can be described thus: DNDI: % of compound remaining in mouse S9 microsomes at a concentration of 1uM after 60 mins. Format: ADME, subcellular, Liver, S9 fraction.
Data set [14] can be described thus: DNDI: in vitro intrinsic clearance in human liver microsomes at a concentration of 10uM. Format: ADME, Microsome.
The test system of another data set is Leishmania donovani. As to the kind of experiment: DNDI: Inhibition of formation of Leishmania donovani (strain MHOM/ET/67/L82) axenic amastigotes, in vitro. Format: functional, organism-based.
A short description of data set [15]: DNDI: % of compound remaining in rat S9 microsomes at a concentration of 1uM. Format: ADME, subcellular, Liver, S9 fraction.
The nature of data set [16]: DNDI: Lipophilicity measured in Chromatographic hydrophobicity index (CHI) assay, pH 7.4. Type of data set: physicochemical. The note with it: buffer.
Data set [17] is described as follows: DNDI: half life in human liver microsomes at a concentration of 10uM. Type of data set: ADME, Microsome.
The nature of data set [18]: in vitro. The note with it: mouse, liver microsomes, t (1 / 2).
Description: (§2) DNDI: half life in mouse liver microsomes at a concentration of 1uM
Another data set has as its system Trypanosoma cruzi. Kind of data set: DNDI: Inhibition of Chagas Disease parasite Trypanosoma cruzi (Tulahuen LacZ, Clone C4), in vitro. Format: functional, organism-based.
In data set [19] the test system is Trypanosoma brucei. Kind of data set: DNDI: Inhibition of Human African Trypanosomiasis, Cross 22, in vitro. Format: functional, organism-based.
For data set [20] the following is noted: mouse, microsomes, 1 µM. The source holds these as a separate data set.
Description: as §2
Data set [21] can be described thus: in vitro. The note with it: mouse, liver microsomes.
Description: as §1
Data set [22] is described as follows: in vitro. The note with it: human, liver microsomes, t (1 / 2).
Description: DNDI: half life in human liver microsomes at a concentration of 1uM
Data set [23] is described as follows: in vitro. The note with it: human, liver microsomes, CLint in vitro.
Description: DNDI: in vitro intrinsic clearance in human liver microsomes at a concentration of 1uM
Data set [24] addresses T1, MDR1 (ABCB1) (Homo sapiens, UniProt P08183). Kind of data set: DNDI: Efflux ratio for permeability from basolateral to apical side to apical to basolateral side of MDCK cells transfected with human MDR1. The note with it: dog, MDCK-MDR1; read-out: Calculated Ratio. Format: ADME, cell-based, Canis lupus familiaris.
The target of data set [25] is T1, MDR1 (ABCB1). Kind of data set: DNDI: % of compound recovered from apical to basolateral permeability assay in MDCK cells transfected with human MDR1 after 60 mins at a concentration of 3uM in the presence of GF120918. The note with it: dog, MDCK-MDR1, with GF120918 (concentration not stated). Type of data set: ADME, cell-based, Canis lupus familiaris.
In data set [26] the target is T1, MDR1 (ABCB1). As to the kind of experiment: DNDI: % of compound recovered from apical to basolateral permeability assay in MDCK cells transfected with human MDR1 after 60 mins at a concentration of 3uM. The note with it: dog. Type of data set: ADME, cell-based, Canis lupus familiaris.
Data set [27] has as its target T1, MDR1 (ABCB1). As to the kind of experiment: DNDI: Apparent permeability from apical to basolateral side of the MDCK cell transfected with human MDR1after 60 mins at a concentration of 3uM. Format: ADME, cell-based, Canis lupus familiaris. The note with it: dog, MDCK-MDR1.
[28] abbreviates: Trypanosoma brucei, SBRI 427, read-out: IC50.

Molecules are shown by their SMILES. Values after ≈ are worked out from the molar mass of the structure shown. Values joined by “and” are separate entries in the source; they are usually repeats but may differ in a detail not shown here. Equal values may be shown once.

T1 sequence (P08183 whole entry): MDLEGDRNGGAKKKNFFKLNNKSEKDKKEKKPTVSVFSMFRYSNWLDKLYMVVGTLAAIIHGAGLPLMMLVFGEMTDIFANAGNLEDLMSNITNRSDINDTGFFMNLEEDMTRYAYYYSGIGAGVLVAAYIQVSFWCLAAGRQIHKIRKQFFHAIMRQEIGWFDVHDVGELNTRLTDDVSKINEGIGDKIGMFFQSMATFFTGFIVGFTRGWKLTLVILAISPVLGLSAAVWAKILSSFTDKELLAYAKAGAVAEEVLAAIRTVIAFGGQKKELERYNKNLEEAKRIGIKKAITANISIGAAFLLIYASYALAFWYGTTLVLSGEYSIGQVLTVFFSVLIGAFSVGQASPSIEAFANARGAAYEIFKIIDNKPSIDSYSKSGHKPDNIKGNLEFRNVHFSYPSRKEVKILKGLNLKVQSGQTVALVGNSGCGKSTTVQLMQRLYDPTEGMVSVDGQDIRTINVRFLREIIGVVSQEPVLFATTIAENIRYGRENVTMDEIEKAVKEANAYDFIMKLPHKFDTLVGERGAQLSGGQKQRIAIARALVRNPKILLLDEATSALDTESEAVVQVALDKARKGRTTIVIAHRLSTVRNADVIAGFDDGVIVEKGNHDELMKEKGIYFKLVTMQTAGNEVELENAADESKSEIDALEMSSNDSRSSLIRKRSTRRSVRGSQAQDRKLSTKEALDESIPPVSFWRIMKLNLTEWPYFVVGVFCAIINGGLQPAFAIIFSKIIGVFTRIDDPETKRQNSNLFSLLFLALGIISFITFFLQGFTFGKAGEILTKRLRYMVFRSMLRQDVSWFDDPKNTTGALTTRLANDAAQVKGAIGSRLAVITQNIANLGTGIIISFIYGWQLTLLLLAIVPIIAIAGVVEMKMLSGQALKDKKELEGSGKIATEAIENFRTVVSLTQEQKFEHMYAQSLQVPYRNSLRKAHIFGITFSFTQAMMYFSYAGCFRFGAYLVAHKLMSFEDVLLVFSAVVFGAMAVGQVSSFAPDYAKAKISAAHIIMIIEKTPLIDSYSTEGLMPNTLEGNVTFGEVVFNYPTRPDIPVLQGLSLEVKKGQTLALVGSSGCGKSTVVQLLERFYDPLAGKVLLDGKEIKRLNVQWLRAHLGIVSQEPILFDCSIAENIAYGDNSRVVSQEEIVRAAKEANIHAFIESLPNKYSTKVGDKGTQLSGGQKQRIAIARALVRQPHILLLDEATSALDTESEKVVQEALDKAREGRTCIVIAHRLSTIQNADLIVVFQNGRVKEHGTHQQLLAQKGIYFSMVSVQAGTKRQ

One may read the IC50 as the concentration needed to halve the response being measured. By kinetic solubility is commonly meant the concentration staying in solution when a stock, usually in DMSO, is diluted into the medium. Usually half-life stands for how long it takes for the measured level to halve. By fraction remaining is commonly meant what is left of the initial amount, in per cent. Low readings indicate more turnover, high ones less turnover. The chromatographic logD is a lipophilicity value derived from retention on a column. High values mean higher lipophilicity, low ones lower lipophilicity. A word on the logD: it is the decadic logarithm of the distribution of all forms, ionised or not, between an organic phase and buffer at a given pH. A lower logD goes with a more hydrophilic compound. The molecule `COc1cc(C)ccc1Oc1ncccc1/C(=N/O)NC1CCCCC1` showed an MSD in the data set with Trypanosoma brucei [1] of 5.5 days. For the same molecule, the IC50 in the data set on Trypanosoma brucei [2] is 0.48 µg/mL (≈ 1.35 µM); in [6] it was 76.2 µg/mL (≈ 214 µM); in the data set with Trypanosoma brucei [11] it was 0.15 µg/mL (≈ 0.422 µM); in the data set on Trypanosoma brucei [11] (setting [28]), 0.25 µg/mL (≈ 0.703 µM); in the data set with Plasmodium falciparum, > 5 µg/mL; in data set [12] it was 57.9 µg/mL (≈ 163 µM). Moreover, the values for the IC50 in the data set with Leishmania donovani and with Trypanosoma cruzi were > 90 µg/mL and > 30 µg/mL, respectively. Besides, the results for the CLint in vitro in data set [3] and in data set [14] were 76 µL/min/mg and 19 µL/min/mg, respectively. For the same molecule, in data set [4], the IC50 at 72 h was > 10 µg/mL. Further, the kinetic solubility in data set [5] and in data set [10] was 25 µM (≈ 8.89 µg/mL) in each case. For the same molecule, the microsomal CLint at 10 µM in data set [7] was found to be 76 µL/min/mg. Also, the half-life at 10 µM in [8] came to 38 min; in data set [17], 154 min. For the same molecule, the IC50 at 24 h in [9] is > 50 µg/mL. Besides, in [13], the amount remaining at 1 h, 1 µM was determined as 18.3%. Moreover, the fraction remaining at 1 µM in data set [15] amounted to 0.111%. Besides, the chromatographic logD in data set [16] was 4. This molecule yielded a logD in data set [16] of 4.04. The half-life at 1 µM in the data set “in vitro [18]” worked out at 11 min.
In the case of `CCCCOc1ccc(-c2nc(CNC3CC(C)CC(C)(C)C3)co2)cc1` (stereo not given), the IC50 in the data set with Trypanosoma brucei [19] is 0.61 µg/mL (≈ 1.65 µM); in the data set with Trypanosoma brucei [11] it was 0.39 µg/mL and 0.47 µg/mL and 1.12 µg/mL. Further, the CLint in vitro in data set [3] stood at 8 µL/min/mg. The IC50 at 72 h in data set [4] was < 3.13 µg/mL. The “t (1 / 2)” value in [20] is 113 min. Moreover, 20.9 µg/mL (≈ 56.4 µM) corresponded to half-maximal inhibition in data set [9] (IC50 at 24 h). Also, the microsomal CLint at 1 µM in the data set “in vitro [21]” came out at 6 µL/min/mg. Moreover, the half-life at 1 µM in the data set “in vitro [18]” amounted to 140 min.
For the molecule `O/N=C(\Nc1ccccc1)c1ccccc1-c1ccccc1`, the MSD in the data set with Trypanosoma brucei [1] turned out to be 4 days. This molecule displayed a CLint in vitro in data set [3] of 352 µL/min/mg. Further, the values for the half-life at 1 µM in “in vitro [22]” and in the data set “in vitro [18]” were 112 min and 3 min, respectively. In data set [5], this molecule had a kinetic solubility of 25 µM (≈ 7.21 µg/mL). Further, in data set [20], the “t (1 / 2)” value is 2 min. This molecule gave an IC50 at 24 h in data set [9] of 36.9 µg/mL (≈ 128 µM). Moreover, the values for the microsomal CLint at 1 µM in the data set “in vitro [21]” and in the data set “in vitro [23]” were 338 µL/min/mg and 8 µL/min/mg, respectively. Moreover, the IC50 in the data set with Trypanosoma brucei [11] (setting [28]) was determined as 4.39 µg/mL (≈ 15.2 µM). For the same molecule, in data set [16], the chromatographic logD came out at 4.32.
For the molecule `CC1(C)[C@H]2CC[C@@H](CNCc3coc(-c4ccc(-c5ccccc5)cc4)n3)[C@@H]1C2`, the IC50 in the data set with Trypanosoma brucei [19] is 0.64 µg/mL (≈ 1.66 µM); in the data set on Trypanosoma brucei [11] it was 0.28 µg/mL and 0.72 µg/mL and 0.58 µg/mL. In addition, the CLint in vitro in [3] was 25 µL/min/mg and 11 µL/min/mg. Also, in data set [4], the IC50 at 72 h is < 3.13 µg/mL. Further, the “t (1 / 2)” value in data set [20] is 80 min and 34 min. The same molecule returned an IC50 at 24 h in [9] of 17.6 µg/mL (≈ 45.6 µM).
As a reminder, the Papp A→B is the apparent permeability from the apical to the basolateral side of a cell layer. Consider `Cc1cc(NCCCn2ccnc2)n2nc(-c3cccc(F)c3)cc2n1`, for which the efflux ratio on MDR1 (ABCB1) [24] is 0.43. Besides, the values for the recovery at 1 h, 3 µM on MDR1 (ABCB1) [25] and on MDR1 (ABCB1) [26] were 109% and 100%, respectively. Besides, the IC50 at 72 h in data set [4] was > 10 µg/mL. In [5], this molecule gave a solubility (kinetic) of 25 µM (≈ 8.76 µg/mL). For the same molecule, the IC50 with Trypanosoma brucei [11] (setting [28]) was > 5 µg/mL. Further, the Papp A→B at 1 h, 3 µM on MDR1 (ABCB1) [27] was 30.4 ×10⁻⁶ cm/s. The molecule also gave a chromatographic logD in data set [16] of 3.67.
On to `c1ccc(-c2ccc(-c3nc(CNC4CCCCCC4)co3)cc2)cc1`, for which the IC50 is 0.54 µg/mL (≈ 1.56 µM) with Trypanosoma brucei [19]; 0.27 µg/mL and 0.56 µg/mL and 0.41 µg/mL with Trypanosoma brucei [11]. Besides, in data set [3], the CLint in vitro is 4 µL/min/mg and 10 µL/min/mg. In addition, in data set [4], the IC50 at 72 h is < 3.13 µg/mL. In addition, the “t (1 / 2)” value in [20] was 88 min and 237 min. This molecule displayed an IC50 at 24 h in data set [9] of 25.3 µg/mL (≈ 73.1 µM).
Consider `COc1ccccc1/C(=N/O)NC1CCCCC1`, for which the values for the CLint in vitro in data set [3] and in [14] were 40 µL/min/mg and 23 µL/min/mg, respectively. For the same molecule, in data set [4], the IC50 at 72 h is > 10 µg/mL. In addition, the IC50 in data set [6] was 62.3 µg/mL (≈ 251 µM); in the data set with Trypanosoma brucei [11] (setting [28]) it was 0.52 µg/mL (≈ 2.09 µM); in the data set on Plasmodium falciparum, 3.7 µg/mL (≈ 14.9 µM); in data set [12], 7.46 µg/mL (≈ 30 µM); in the data set with Leishmania donovani it was 17 µg/mL (≈ 68.5 µM); in the data set with Trypanosoma cruzi, > 30 µg/mL. Moreover, the microsomal CLint at 10 µM in [7] is 91 µL/min/mg. In addition, the figures for the half-life at 10 µM in data set [8] and in [17] were 32 min and 128 min, respectively. Also, the IC50 at 24 h in [9] is > 50 µg/mL. For the same molecule, in [10], the kinetic solubility was > 200 µM. In data set [13], the share remaining at 1 h, 1 µM stood at 1.05%. The same molecule returned a share remaining at 1 µM in data set [15] of 0%. In [16], this molecule came in with a chromatographic logD of 3.6. The half-life at 1 µM in the data set “in vitro [18]” stood at 21 min.

(Values after ChEMBL document CHEMBL1857833, “Screening and optimization of specific chemical series against human African Trypanosomiasis (HAT)”.)
